Data: patent publication US10988522B2, “Proteolically resistant cyclotides with angiotensin 1-7 like activity” (University of Southern California, priority 2016, dated 2021)

What was measured:
recombinant human MAS1 = target: T1, recombinant human MAS1 (Homo sapiens, UniProt P04201); assay: MAS1 activation: cell-based fluorescence assay of NO release in CHO cells stably transfected with MAS1; conditions: for intracellular concentration of NO in the presence of MAS1 antagonist A779: A779 at 0.1 μM for 15 min before addition; for intracellular concentration of NO (fluorescence): no antagonist, 2 hours
T1 construct: expressed in transfected cells; host or cells: CHO cells, stably transfected with pTEJ-8 vector
T1 sequence (P04201 1-325): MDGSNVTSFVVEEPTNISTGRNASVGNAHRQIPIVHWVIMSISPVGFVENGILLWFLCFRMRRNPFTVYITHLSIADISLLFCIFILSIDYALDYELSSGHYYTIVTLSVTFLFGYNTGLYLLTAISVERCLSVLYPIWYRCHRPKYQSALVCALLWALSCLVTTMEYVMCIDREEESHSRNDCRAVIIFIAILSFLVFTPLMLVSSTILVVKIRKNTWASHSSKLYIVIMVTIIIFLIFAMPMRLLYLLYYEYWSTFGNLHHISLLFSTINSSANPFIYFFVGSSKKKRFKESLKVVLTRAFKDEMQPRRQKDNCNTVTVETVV
Protocol: CHO cells stably transfected with pTEJ-8 vector expressing recombinant human MAS1 clone are grown to confluency. After washing, cells are incubated for a short time in 700 μL of supplemented Tyrode's salts containing 10 μM 2-phenyl-4,4,5,5-tetramethylimidazoline-1-oxyl-3-oxide (PTIO), 100 μM 2,3-diaminonaftalene (DAN), and 1 mM L-arginine. When using antagonist for competition assays, cells are exposed to MAS1 antagonist A779 (D-Ala^7-AT 1-7) at 0.1 μM for 15 min before addition of the cyclotides to be tested. Different concentrations of the cyclotides to be analyzed are added to the cell medium and the plates are agitated for 1 min before being placed into the incubator for 2 hours. After 2 hours, the cellular supernatants are transferred to opaque 96 well plates, and the amount of released NO is measured by fluorescence (λex=380 nm, λem=425 nm).

human lung cancer cells = conditions: through activation of MAS1; cited from earlier work
[1] = Protocol: This was accomplished by incubating the corresponding peptides in human serum at 37° C. The quantitative analysis of undigested polypeptides was performed using liquid chromatography coupled with tandem mass spectrometry (LC-MS/MS). Naturally occurring MCoTI-cyclotides present a very rigid structure, which makes them extremely stable to proteolytic degradation.
Human serum was spun down at 15,000 rpm for 10 min to separate the lipid components. Peptides (about 15 μg dissolved in 15 μl PBS) were mixed with 150 μl human serum and incubated in a 37° C. water bath. Aliquot samples (15 μL) were taken at different time points and serum protein were precipitated with about 70% MeCN at 4° C. for 10 min. The supernatant was separated, lyophilized, dissolved in 5% MeCN in water containing 0.1% formic acid, and analyzed by HPLC-MS/MS.

cyclooxygenase-2 (COX-2) = conditions: xenograft tumor; cited from earlier work
[2] = test system: human lung adenocarcinoma xenografts; conditions: cited from earlier work
cyclooxygenase 1 (COX-1) = conditions: same xenograft tumor; cited from earlier work

Compound | MAS1 agonist activity (summary statement) (recombinant human MAS1; MAS1-transfected CHO cells) | intracellular concentration of NO in the presence of MAS1 antagonist A779 (recombinant human MAS1; MAS1-transfected CHO cells) | intracellular concentration of NO (fluorescence) (recombinant human MAS1; MAS1-transfected CHO cells) | activity relative to that of peptide AT1-7 (recombinant human MAS1; at 10 nM, NO release assay) | serum-stimulated growth of human lung cancer cells (human lung cancer cells) | τ1/2 in human serum [1] [min] | COX-2 activity (cyclooxygenase-2 (COX-2)) | tumor growth [2] | COX-1 activity (cyclooxygenase 1 (COX-1))
GGVCPKILQRCRRDSDCPGACICRGNGYCGSGXRVYIHE [MCo-AT1-7, MCoTI-I cyclotide with AT1-7-derived peptide (Asp1 to diaminopropionic acid, Pro7 to Glu) grafted onto loop 6 via two isopeptide bonds] | potent MAS1 agonist, with similar activity to that of the peptide AT1-7 | no increase in the intracellular concentration of NO was detected | increase the intracellular concentration of NO in a dose dependent manner | about 90% | – | – | – | – | –
CC[C@H](C)[C@H](NC(=O)[C@H](Cc1ccc(O)cc1)NC(=O)[C@@H](NC(=O)[C@H](CCCNC(=N)N)NC(=O)[C@@H](N)CC(=O)O)C(C)C)C(=O)N[C@@H](Cc1c[nH]cn1)C(=O)N1CCC[C@H]1C(=O)O [AT1-7, DRVYIHP] | – | A similar profile was obtained | increase the intracellular concentration of NO in a dose dependent manner | – | reduce serum-stimulated growth of human lung cancer cells both in vitro and in vivo | 44 ± 3 | reduction in cyclooxygenase-2 (COX-2) activity | inhibit tumor growth | no effect
